These are literature values, as cited in US20050215455A1, “Surfactants in powdered form that can be used in tablets or gelatin capsules; preparation process and compositions containing them” (priority 2004, published 2005).

Values after ≈ are worked out from the molar mass of the structure shown.

`Cn1c(=O)c2[nH]cnc2n(C)c1=O` [Theophylline]: the Solubility in water was 8 µg/mL (≈ 44.4 µM).
